Source: US20260226057A1, “TRICYCLIC AZEPINONE DERIVATIVES AS SYSTEM XC INHIBITORS” (UCB BIOPHARMA SRL, priority 2023, published 2026)

What was measured:
[1] = biological target: T1, System Xc^− cystine/glutamate antiporter (Homo sapiens, UniProt Q9UPY5); experiment: Cystine-induced glutamate release assay; assay type: cell-based; design: endogenous in cells; host or cells: H4 cells; settings: H4 cells, 50 μM L-Cystine, 2 hours, sodium-free HEPES buffer; read-out: Cystine-induced glutamate release assay (range of pIC50) (converted)
T1 sequence (Q9UPY5 1-501): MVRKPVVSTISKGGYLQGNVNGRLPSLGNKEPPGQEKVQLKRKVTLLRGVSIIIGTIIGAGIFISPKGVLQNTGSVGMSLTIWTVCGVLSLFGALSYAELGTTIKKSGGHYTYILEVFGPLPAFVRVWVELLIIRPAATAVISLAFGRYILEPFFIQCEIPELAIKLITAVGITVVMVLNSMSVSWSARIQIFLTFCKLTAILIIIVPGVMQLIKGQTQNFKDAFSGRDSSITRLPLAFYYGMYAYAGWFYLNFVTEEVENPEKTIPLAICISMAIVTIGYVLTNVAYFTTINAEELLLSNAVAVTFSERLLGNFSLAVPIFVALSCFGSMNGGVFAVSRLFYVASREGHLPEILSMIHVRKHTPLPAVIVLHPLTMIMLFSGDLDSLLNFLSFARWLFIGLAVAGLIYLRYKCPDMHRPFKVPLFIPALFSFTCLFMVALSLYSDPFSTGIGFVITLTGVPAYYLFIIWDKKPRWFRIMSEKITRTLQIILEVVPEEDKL
T1 sequence (P08195 1-529 partner): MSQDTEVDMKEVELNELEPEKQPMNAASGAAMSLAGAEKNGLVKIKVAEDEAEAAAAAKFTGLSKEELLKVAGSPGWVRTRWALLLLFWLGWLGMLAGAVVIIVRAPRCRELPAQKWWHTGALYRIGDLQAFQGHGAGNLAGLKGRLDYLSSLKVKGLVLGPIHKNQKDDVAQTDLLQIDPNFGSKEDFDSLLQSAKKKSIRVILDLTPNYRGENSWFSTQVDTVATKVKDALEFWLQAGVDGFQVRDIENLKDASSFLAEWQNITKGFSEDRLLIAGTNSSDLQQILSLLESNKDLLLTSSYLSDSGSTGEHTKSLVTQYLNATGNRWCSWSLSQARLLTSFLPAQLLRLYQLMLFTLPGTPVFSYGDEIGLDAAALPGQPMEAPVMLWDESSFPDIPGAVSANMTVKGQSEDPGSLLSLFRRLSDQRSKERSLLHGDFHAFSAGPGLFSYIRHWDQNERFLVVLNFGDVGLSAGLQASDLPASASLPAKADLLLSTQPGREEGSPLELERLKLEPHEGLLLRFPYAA
Excerpt: (§1) By measuring respectively, the concentration of glutamate released outside the cell and the L-cystine uptaken in the cell, with increasing concentrations of compounds of formula (I) according to the present invention, the efficacy of said compounds to inhibit the System Xc^− function can be evaluated.
(§2) The efficacy of the compounds to inhibit system Xc^− is represented by measuring the IC50 which corresponds to the concentration of compound necessary to inhibit 50% of the signals from the two control groups; DMSO 1% and Erastin 50 μM in the respective assays. pIC50 values correspond to −log of the IC50 in Molar.
Measurement of cystine-induced glutamate release indicates levels of glutamate (outside of the cell) that are dependent on system Xc^− antiporter function. Upon the addition of L-Cystine to H4 cells, intracellular glutamate is counter-transported and exported in the supernatant.
In this assay, the medium is devoid of sodium to prevent the transport of glutamate by sodium-dependent excitatory amino acid transporters (EAATs). H4 cells were plated on 384-well culture plate at 1×10^4 cells/well in Dulbecco's Modified Eagle Medium (DMEM) with L-glutamine, penicillin/streptomycin and 10% fetal bovine serum (all from ThermoFisher Scientific) and incubated in a humidified CO2 incubator at 37° C. After 2 days, cells were washed 4 times with prewarmed sodium-free HEPES buffer (contents in mM: HEPES 10, KCl 5.4, CaCl2 2.5, MgCl2 1, KH2PO4 0.4, D-Glucose 5, Choline chloride 140), pH 7.4. Glutamate release was induced by addition of 50 μM of L-Cystine (Sigma-Aldrich), together with a test compound of Formula (I) at 1% final DMSO concentration. After 2 hours of incubation in the culture incubator, supernatants were transferred to a low-binding polypropylene 384-well plate to determine L-glutamate concentration using Amplex™ Red Glutamic Acid Assay Kit (ThermoFisher Scientific). Briefly, 10 μL of Amplex™ Red working solution was added to 10 μL of the supernatant, then the mixture was incubated for 30 min at 37° C. Fluorescence intensity was measured by EnVision microplate reader (PerkinElmer).

[2] = biological target: T1, System Xc^− cystine/glutamate antiporter; experiment: [^14C]L-Cystine uptake assay; assay type: cell-based; settings: H4 cells, 15 min preincubation, 1 hour at 37° C., sodium-free HEPES buffer; read-out: [^14C] L-Cystine uptake assay (range of pIC50) (converted)
Excerpt: as §1, §2
In this assay, the medium is devoid of sodium to prevent the transport of glutamate by sodium-dependent excitatory amino acid transporters (EAATs). H4 cells were plated on a 96-well CytoStar-T scintillating microplate (PerkinElmer) at 5×10^4 cells/well in the medium described above. After 1 day, cells were washed one time with the sodium-free HEPES buffer and preincubated with test compounds of Formula (I) (1% final DMSO) for 15 min. Uptake was initiated by adding 0.5 μM L-[1,2, 1′,2′-^14C] Cystine (0.02 mCi/mL, PerkinElmer, Waltham, US) and 4.5 μM L-Cystine (Sigma-Aldrich). After 1 hour at 37° C., plates were counted in a MicroBeta^2 microplate counter (PerkinElmer).

SMILES	IC50 [1] [nM]	IC50 [2] [nM]
CC(=O)c1ccc(NC(=O)CN2C(=O)C(C)c3ncc(F)cc3-c3c2cc(C)nc3F)cc1O (single isomer, unassigned) [#33]	< 15.8	< 15.8
COc1cnc2c(c1)-c1c(cc(C)nc1F)N(CC(=O)Nc1ccc(C(C)=O)cc1)C(=O)C2C (single isomer, unassigned) [#20]	39.8 to 100	15.8 to 39.8
COc1cc2c(c(F)n1)-c1cccnc1C(C)C(=O)N2CC(=O)Nc1ccc(C(C)=O)cc1 (single isomer, unassigned) [#11]	15.8 to 39.8	15.8 to 39.8
CC(=O)c1ccc(NC(=O)CN2C(=O)C(C)c3ncccc3-c3c2cc(C2CCC2)nc3F)cc1 (stereo not shown) [#31]	15.8 to 39.8	15.8 to 39.8
CC(=O)c1ccc(NC(=O)CN2C(=O)C(C)c3ncc(F)cc3-c3cnc(C)cc32)cc1 (stereo not shown) [#4]	39.8 to 100	39.8 to 100
CC(=O)c1ccc(NC(=O)CN2C(=O)[C@H](C)c3ncc(F)cc3-c3c2cc(C)nc3F)cc1 [#3]	15.8 to 39.8	15.8 to 39.8
CC(=O)c1ccc(NC(=O)CN2C(=O)C(C)c3ncccc3-c3c2cc(N2CC(C)(F)C2)nc3F)cc1 (stereo not shown) [#26]	100 to 501	15.8 to 39.8
CC(=O)c1ccc(NC(=O)CN2C(=O)[C@H](C)c3ncc(F)cc3-c3c2cc(C)nc3Cl)cc1 [#5]	< 15.8	< 15.8
CC(=O)c1ccc(NC(=O)CN2C(=O)Cc3ncccc3-c3c2cc(N2CC(F)(F)C2)nc3F)cc1 [#22]	39.8 to 100	15.8 to 39.8
COc1nc(C)cc2c1-c1cccnc1C(C)C(=O)N2CC(=O)Nc1ccc(C(C)=O)cc1 (single isomer, unassigned) [#13]	15.8 to 39.8	< 15.8
Cc1cc2c(c(F)n1)-c1cc(F)cnc1C(C)C(=O)N2CC(=O)Nc1ccc2c(c1)OCC2=O (single isomer, unassigned) [#18]	39.8 to 100	39.8 to 100
CC(=O)c1ccc(NC(=O)CN2C(=O)C(C)c3ncc(F)cc3-c3cc(C#N)c(C)cc32)cc1 (single isomer, unassigned) [#19]	15.8 to 39.8	< 15.8
Cc1cc2c(c(F)n1)-c1cccnc1[C@@H](C)C(=O)N2CC(=O)Nc1ccc(C(=O)C2CC2)cc1 [#2]	100 to 501	100 to 501
CC(=O)c1ccc(NC(=O)CN2C(=O)C(C)c3ncccc3-c3c2cc(F)nc3F)cc1 (single isomer, unassigned) [#23]	39.8 to 100	39.8 to 100
CC(=O)c1ccc(NC(=O)CN2C(=O)Cc3ncccc3-c3c2cc(N2CC(F)C2)nc3F)cc1 [#21]	15.8 to 39.8	< 15.8
CC(=O)c1ccc(NC(=O)CN2C(=O)C(C)c3nscc3-c3c2cc(C)nc3F)cc1 (stereo not shown) [#28]	39.8 to 100	100 to 501
CCC(=O)c1ccc(NC(=O)CN2C(=O)[C@H](C)c3ncccc3-c3c2cc(C)nc3F)cc1 [#15]	39.8 to 100	39.8 to 100
COc1nccc2c1-c1cccnc1C(C)C(=O)N2CC(=O)Nc1ccc(C(C)=O)cc1 (single isomer, unassigned) [#14]	39.8 to 100	15.8 to 39.8

SMILES	IC50 [1] [nM]	IC50 [2] [nM]
CC(=O)c1ccc(NC(=O)CN2C(=O)C(C)c3ncccc3-c3c2cc(N2CC(C)(O)C2)nc3F)cc1 (stereo not shown) [#25]	39.8 to 100	15.8 to 39.8
CC(=O)c1ccc(NC(=O)CN2C(=O)C(C)c3ncccc3-c3c2cc(C)nc3F)cc1F (stereo not shown) [#24]	39.8 to 100	15.8 to 39.8
COc1cc2c(c(F)n1)-c1cc(F)cnc1C(C)C(=O)N2CC(=O)Nc1ccc(C(C)=O)cc1 (single isomer, unassigned) [#17]	39.8 to 100	< 15.8
CC(=O)c1ccc(NC(=O)CN2C(=O)C(C)c3ncccc3-c3c2cc(C)nc3F)cc1O (single isomer, unassigned) [#16]	15.8 to 39.8	< 15.8
CC(=O)c1ccc(NC(=O)CN2C(=O)Cc3ncccc3-c3c2cc(N2CC4(C2)CC4(F)F)nc3Cl)cc1 [#9]	100 to 501	39.8 to 100
CC(=O)c1ccc(NC(=O)CN2C(=O)C(C)c3ncccc3-c3c2cc(C)nc3Cl)cc1 (single isomer, unassigned) [#6]	< 15.8	< 15.8
CC(=O)c1ccc(NC(=O)CN2C(=O)C(C)c3cnc(F)cc3-c3c2cc(C)nc3F)cc1 (stereo not shown) [#34]	39.8 to 100	39.8 to 100
CC(=O)c1ccc(NC(=O)CN2C(=O)C(C)c3ncccc3-c3c2cc(C2(O)CCC2)nc3F)cc1 (stereo not shown) [#29]	39.8 to 100	39.8 to 100
CC(=O)c1ccc(NC(=O)CN2C(=O)[C@H](C)c3ncccc3-c3c2cc(C)nc3F)cc1 [#1]	15.8 to 39.8	15.8 to 39.8
CC(=O)c1ccc(NC(=O)CN2C(=O)C(C)c3ncccc3-c3c(F)cc(N4CC(F)C4)cc32)cc1 (stereo not shown) [#35]	15.8 to 39.8	< 15.8
CC(=O)c1ccc(NC(=O)CN2C(=O)Cc3ncccc3-c3c2cc(N2CC(C)(O)C2)nc3F)cc1 [#27]	39.8 to 100	15.8 to 39.8
COc1cnc2c(c1)-c1cnc(C)cc1N(CC(=O)Nc1ccc(C(C)=O)cc1)C(=O)C2C (single isomer, unassigned) [#12]	39.8 to 100	39.8 to 100
CC(=O)c1ccc(NC(=O)CN2C(=O)C(C)c3ncccc3-c3c2cc(N2CC(F)C2)nc3F)cc1 (stereo not shown) [#8]	< 15.8	< 15.8
CC(=O)c1ccc(NC(=O)CN2C(=O)C(C)c3ncccc3-c3c2cc(N2CC(F)(F)C2)nc3F)cc1 (stereo not shown) [#7]	39.8 to 100	< 15.8
CC(=O)c1ccc(NC(=O)CN2C(=O)Cc3ccccc3-c3c2cc(C)nc3F)cc1 [#10]	100 to 501	39.8 to 100
COc1cc2c(cn1)-c1cc(F)cnc1C(C)C(=O)N2CC(=O)Nc1ccc(C(C)=O)cc1 (single isomer, unassigned) [#32]	100 to 501	15.8 to 39.8
CC(=O)c1ccc(NC(=O)CN2C(=O)C(C)c3ncc(F)cc3-c3c2cc(CO)nc3F)cc1 (stereo not shown) [#30]	100 to 501	100 to 501
